Laboratory results: PMC5354587, “Ergosterone-coupled Triazol molecules trigger mitochondrial dysfunction, oxidative stress, and acidocalcisomal Ca^2+ release in Leishmania mexicana promastigotes” (Microbial Cell, 2015)

Key:
Assay type in all cases: cell-based
[1] = test system: Leishmania mexicana promastigotes; experiment: Annexin V-AlexaFluor488/propidium iodide double staining, flow cytometry; settings: Erg-GTr 1.4 μM or Erg-GTr2 2.3 μM
Description: The effect of Erg-GTr and Erg-GTr2 was further analyzed to determine the cell death mechanism. Asymmetry of the plasma membrane is loosed when cell death processes are activated. The Annexin V-AlexaFluor488/propidium iodide double staining was used to detect phosphatidylserine (PS) in the outer leaflet of the plasma membrane using flow cytometry after parasite treatment. Cells were incubated for 24 and 48 hours with Erg-GTr (1.4 μM) or Erg-GTr2 (2.3 μM). […] At this time, the integrity of the plasma membrane was still intact, as evidenced by a low PI staining (5% or lower). After 48 hours, the percentage of Annexin V positive cells increased to reach more than 60% (Erg-GTr) or was maintained at around 40% in the case of Erg-GTr2 (Figure 2B). […] This phenomenon has been reported as a criterium of the late stage of cell death processes.
The annexin V-AlexaFluor 488 (Invitrogen) was used following the manufacture recommendations. Briefly, 1 x 10^6 parasites were washed with PBS and incubated with annexin V and propidium iodide (0.05 mg x mL^-1) in 100 μL binding buffer for 15 minutes. Final volume was adjusted at 500 μL and samples were immediately analyzed in a Beckman Coulter Gallios Cytometer.

[2] = test system: Leishmania mexicana promastigotes; experiment: Cytoplasmic Ca2+ level measurement with Fura 2-AM; settings: Erg-GTr 1.4 μM or Erg-GTr2 2.3 μM; same result with extracellular Ca2+ sequestered by EGTA
From the text: In order to evaluate the possible effect of Erg-GTr and Erg-GTr2 on the cytoplasmic Ca^2+ concentration ([Ca^2+]cyt) in L. mexicana promastigotes, parasites were loaded with fura 2-AM, a fluorimetric Ca^2+ indicator which allows the measurement of intracellular changes in its concentration. Figure 7A represents the relative [Ca^2+]cyt, indicated as normalized OD340/380 ratio.
The fluorescent ratiometric Ca^2+ indicator Fura 2-AM was used to analyze intracellular Ca^2+ concentration. Promastigotes from stationary phase cultures were washed twice with PBS containing 1% glucose and incubated for 3 hours at 29°C with 4 μM Fura 2-AM, […], and 0.05% pluronic acid. Thereafter, parasites were washed twice, resuspended, and placed in a stirred quartz cuvette at 29°C. Fluorescence (ex 340 nm/380 nm and em 510 nm) was registered in a Hitachi F-7000 Spectrofluorimeter. Digitonin and EGTA were used to obtain the maximum and minimum [Ca^2+] in the sample, respectively.

[3] = test system: Leishmania mexicana promastigotes; experiment: DNA content analysis with propidium iodide (cell cycle, SubG1); settings: 1.4 μM Erg-GTr or 2.3 μM Erg-GTr2, 48 hours
Description: In order to analyze if Erg-GTr molecules influence the normal cell cycle distribution, the DNA content of treated cells was evaluated using propidium iodide.
Figure 4 FIGURE 4: Analysis of the DNA content in L. mexicana promastigotes. Treated (1.4 μM Erg-GTr or 2.3 μM Erg-GTr2) or control cells (DMSO) were harvested at different time points and prepared for determination of DNA content. Acquisition was performed in arithmetic scale to obtain G1 and G2/M peaks and in logarithmic scale to earn the subG1 peak. (A) Percentage of cells in the different phases of the cell cycle after 24 and 48 hours treatment. (B) SubG1 peak in percentage after 16, 24 and 48 hours drug contact. Quantification was carried out using the WinMDI software. The bars represent the mean+/-S.D. of three individual cultures measured at each time point.
Propidium iodide was used to determinate the DNA content in parasites after treatment. 1 x 10^6 parasites were washed with PBS and resuspended in 100 μL lysis buffer (7.7 mM Na2HPO4, 2.3 mM KH2PO4) containing 6 μM digitonin. Samples were incubated at 4°C for 30 minutes. Finally, 400 μL staining buffer (20 μg/mL propidium iodide in PBS) was added to each sample. Samples were kept on ice in the dark until their analysis in the cytometer (Beckman Coulter).

CC(C)C(C)C=CC(C)C1CCC2C3=CC(=NNC(=O)n4cnnc4)C4(O)CC(=O)CCC4(C)C3CCC21C (stereo not drawn) [Erg-GTr, [1,2,4]triazole-4-carboxylic acid [5-hydroxy-10,13-dimethyl-3-oxo-17-(1,4,5-trimethyl-hex-2-enyl)-1,2,3,4,5,9,10,11,12,13,14,15,16,17-tetradecahydro-cyclopenta[a]phenanthren-6-ylidene]-hydrazide]
PI staining ([1]; 24 hours): ≤ 5% | PS exposure, percentage of the cell population ([1]; 24 hours): 40.2% | PI positive cells ([1]; 48 hours): 31% | percentage of Annexin V positive cells ([1]; 48 hours): more than 60% | effect on cytoplasmic Ca2+ concentration ([Ca2+]cyt) [2]: rapid increase | cell cycle arrest in the G2/M phase [3]: moderate
